Assay results: ChEMBL document CHEMBL1127553, “Derivatives of a novel cyclopeptolide. 2. Synthesis, activity against multidrug resistance in CHO and KB cells in vitro, and structure-activity relationships” (1994)
Non-standard residues stand in square brackets, D forms with d. Residues, ends and D or L forms follow the SMILES beside them. *: point of attachment. NMeI = CC[C@H](C)[C@H](NC)C(=O)O; NMeD = CN[C@@H](CC(=O)O)C(=O)O; NMeV = CN[C@H](C(=O)O)C(C)C; Pip = O=C(O)[C@@H]1CCCCN1; dLac = C[C@@H](O)C(=O)O; OtBu = CC(C)(C)O*

Tests used:
KB [1] = experiment: The sensitizing capacity of compound for colchicine treatment of multi drug resistance in KB cell was measured at concentration 1.0(mg/L); type: functional, Homo sapiens
CHO [2] = experiment: The sensitizing capacity for colchicine treatment of multi drug resistance (MDR) CHO cell at concentration 1.0(mg/L).; type: functional, Cricetulus griseus
CHO [3] = experiment: The sensitizing capacity for colchicine treatment of multi drug resistance(MDR) in CHO cell at concentration 0.1(mg/L).; type: functional, Cricetulus griseus
CHO [4] = experiment: The sensitizing capacity for colchicine treatment of parental (PAR)CHO cells at concentration 1.0 (mg/L); type: functional, Cricetulus griseus
CHO [5] = experiment: Sensitization of colchicine treated parental (PAR)CHO cells, measured at concentration 0.1(mg/L); type: functional, Cricetulus griseus
KB [6] = experiment: The sensitizing capacity of compound for colchicine treatment of multi drug resistance in KB cell was measured at concentration 3.0(mg/L)
KB [7] = experiment: The sensitizing capacity of compound for colchicine treatment of multi drug resistance in KB cell was measured at concentration 3.0 (mg/L); type: functional, Homo sapiens
KB (human) = experiment: The sensitizing capacity of compound for colchicine treatment of multi drug resistance in KB cell was measured at concentration 1.0(mg/L)
CHO [8] = experiment: The sensitizing capacity of compound for colchicine treatment of parental (PAR)CHO cells was measured at concentration 0.1 (mg/L); type: functional, Cricetulus griseus

Structure (SMILES)	Activity (KB [1])	Activity (CHO [2])	Activity (CHO [3])	Activity (CHO [4])	Activity (CHO [5])	Chemosensitizing activity (KB [6])	Activity (KB [7])	Activity (KB (human))	Activity (CHO [8])
CC[C@H](C)[C@H]1C(=O)NCC(=O)N(C)[C@@H](C(C)C)C(=O)N[C@@H](Cc2ccc(OC)cc2)C(=O)O[C@H](C)C(=O)N2CCCC[C@H]2C(=O)N(C)[C@@H](C(C)C)C(=O)N[C@@H](C(C)C)C(=O)N(C)[C@@H](CC(=O)OC(C)(C)C)C(=O)N(C)[C@@H]([C@@H](C)CC)C(=O)N1C (cyclo(G[NMeV]Y(Me)[dLac][Pip][NMeV]V[NMeD](OtBu)[NMeI][NMeI]))	1.1	135	3.8	8.6	4.6	1.8			
CC[C@@H](C)[C@H]1C(=O)NCC(=O)N(C)[C@@H](C(C)C)C(=O)N[C@@H](Cc2ccc(OC)cc2)C(=O)O[C@H](C)C(=O)N2CCCC[C@H]2C(=O)N(C)[C@@H](C(C)C)C(=O)N[C@@H](C(C)C)C(=O)N(C)[C@H](CC(=O)NC23CC4CC(CC(C4)C2)C3)C(=O)N(C)[C@@H]([C@@H](C)CC)C(=O)N1C		177	25	8.9	7.3		3.7	1.1	
CC[C@H](C)[C@H]1C(=O)NCC(=O)N(C)[C@@H](C(C)C)C(=O)N[C@@H](Cc2ccc(OC)cc2)C(=O)O[C@@H](C)C(=O)N2CCCC[C@H]2C(=O)N(C)[C@@H](C(C)C)C(=O)N[C@@H](C(C)C)C(=O)N(C)[C@@H](CC(=O)OCC23CC4CC(CC(C4)C2)C3)C(=O)N(C)[C@@H]([C@@H](C)CC)C(=O)N1C	1.3	78	1.4	7.4	6.9		3		
CC[C@H](C)[C@H]1C(=O)NCC(=O)N(C)[C@@H](C(C)C)C(=O)N[C@@H](Cc2ccc(OC)cc2)C(=O)O[C@H](C)C(=O)N2CCCC[C@H]2C(=O)N(C)[C@@H](C(C)C)C(=O)N[C@@H](C(C)C)C(=O)N(C)[C@@H](CC(=O)NCCC(C)C)C(=O)N(C)[C@@H]([C@@H](C)CC)C(=O)N1C	1	126	3.7	8.1	5.8		1.1		
CC[C@@H](C)[C@H]1C(=O)NCC(=O)N(C)[C@@H](C(C)C)C(=O)N[C@@H](Cc2ccc(OC)cc2)C(=O)O[C@@H](C)C(=O)N2CCCC[C@H]2C(=O)N(C)[C@@H](C(C)C)C(=O)N[C@@H](C(C)C)C(=O)N(C)[C@H](CC(=O)NCCC(C)C)C(=O)N(C)[C@@H]([C@@H](C)CC)C(=O)N1C	1.5	273	83	8.6	7.7		54		
CC[C@@H](C)[C@H]1C(=O)NCC(=O)N(C)[C@@H](C(C)C)C(=O)N[C@@H](Cc2ccc(OC)cc2)C(=O)O[C@H](C)C(=O)N2CCCC[C@H]2C(=O)N(C)[C@@H](C(C)C)C(=O)N[C@@H](C(C)C)C(=O)N(C)[C@H](CC(=O)O)C(=O)N(C)[C@@H]([C@@H](C)CC)C(=O)N1C		1.8	1.1	7.6					2.2
